Measurements published in patent US20060041019A1, “Inhibitor of anticancer drug side effect” (priority 2002, published 2006).

Key:
Format in all cases: in vivo
[1] = tested on: Male mouse models (CBA/J) of spontaneous alveolar epithelial hyperplasia; assay: Hair loss as side effect of adriamycin, Test Example 1; conditions: ADM 0.1 mg/kg i.p., eight courses
Description: (§1) Male mouse models (CBA/J) of spontaneous alveolar epithelial hyperplasia were employed as test animals. These mice develop alveolar epithelial hyperplasia 12 to 15 weeks after birth. Accordingly, they were raised with normal feeds until 19 weeks after birth. […] CPL was mixed with powder feeds (CE-2). The daily dosage of adriamycin (ADM) was 0.1 mg/kg per mouse, and administration was made intraperitoneally once a day for three consecutive days, followed by drug withdrawal for 11 days. This procedure was designated as constituting a single course, and eight courses thereof were conducted.
(§2) At the time of ADM administration, the body weights of mice were measured and their general conditions were observed. In particular, the occurrence of hair loss was carefully observed. The mice were subjected to autopsy 36 weeks or 37 weeks after birth (with an administration duration of 17 weeks or 18 weeks), and samples were recovered. Tissue blocks were obtained from 3 sites each of the extirpated right and left lungs (6 sites in total), the recovered tissue fragments were fixed, fragments embedded in hydrophilic methacrylate resins were subjected to H-E staining, and the ranges of alveolar epithelial hyperplasia were compared.

[2] = tested on: Mouse models of spontaneous cancer (CBA/J); assay: Hair loss and whisker loss as side effect of adriamycin, Test Example 4; conditions: ADM 0.2 mg/kg i.p. in courses; CPL 0.01% in feed; n = 10 (ADM), 9 (ADM and CPL), 10 (CPL)
From the text: Based on the results attained in Test Examples 2 and 3, hair loss and whisker loss were observed under overcrowded conditions or in the presence of a dominant male. […] Accordingly, only the cage in which the dominant male was not present among the group that had been raised under normal conditions was selected, and the effects of CPL for alleviating side effects of an antitumor agent were examined.
Thereafter, they were divided into: the group to which an antitumor agent (adriamycin, ADM) had been administered; the group to which CPL-containing feeds had been administered; and the group to which ADM had been administered in combination with CPL, and these groups of mice were raised. The daily dosage of ADM was 0.2 mg/kg per mouse, and administration was made intraperitoneally once a day for 3 consecutive days, followed by drug withdrawal for 11 days. This procedure was designated as constituting a single course and then continued. CPL was mixed with feeds (CE-2) in amounts of 0.01% thereof.

[3] = tested on: alveolar epithelial hyperplasia in male mouse models (CBA/J); assay: Inhibition of alveolar epithelial hyperplasia, Test Example 1
Description: as §1
as §2, with “compared. […]” for “compared.”

[4] = CPL 0.01% in feed, group sizes n = 7 (CPL), 8 (CPL and ADM), 10 (ADM)

**Q.** `COc1cccc2c1C(=O)c1c(O)c3c(c(O)c1C2=O)C[C@@](O)(C(=O)CO)C[C@@H]3O[C@H]1C[C@H](N)[C@H](O)[C@H](C)O1` [ADM, adriamycin] was tested. Which “Individuals with hair loss around the eyeballs and the skin of the upper lips” value ([1]; 9 out of 10 cases) did it give?
**A.** 90%

**Q.** And the “Number of individuals undergoing hair loss around the eyeballs” value [1, 4]?
**A.** 9

**Q.** What about the “Number of individuals undergoing hair loss at the upper lip” value [1, 4] of the same compound?
**A.** 9

**Q.** And the “Hair loss and whisker loss (number of individuals)” value [2]?
**A.** 4

**Q.** What about the “Individuals in which sections with rates of hyperplasia development of 50% or more were observed” value ([3]; FIG. 9, as in the group that did not experience administration) of the same compound?
**A.** all individuals

**Q.** And the “Sections with rates of hyperplasia development of less than 10%, share of the whole” value ([3]; lung tissue sections, 6 sites per individual, autopsy 36 or 37 weeks after birth, FIG. 8)?
**A.** 8.3%
